Test results as given in patent US20170157212A1, “CDK MODULATORS AND METHODS FOR THE TREATMENT OF CANCER” (Salk Institute for Biological Studies, priority 2015, published 2017).

Tests used:
[1] = biological target: T1, affinity-purified CDK12 kinase complex (Homo sapiens, UniProt Q9NYV4); assay: In vitro kinase assay: CDK12 phosphorylation of RNAPII GST-CTD; type: biochemical; details: human GST-CTD (52 repeat), increasing levels of recombinant CRIF1, immunoblot, dose-dependent
T1 construct: made in house
T1 sequence (Q9NYV4 whole entry): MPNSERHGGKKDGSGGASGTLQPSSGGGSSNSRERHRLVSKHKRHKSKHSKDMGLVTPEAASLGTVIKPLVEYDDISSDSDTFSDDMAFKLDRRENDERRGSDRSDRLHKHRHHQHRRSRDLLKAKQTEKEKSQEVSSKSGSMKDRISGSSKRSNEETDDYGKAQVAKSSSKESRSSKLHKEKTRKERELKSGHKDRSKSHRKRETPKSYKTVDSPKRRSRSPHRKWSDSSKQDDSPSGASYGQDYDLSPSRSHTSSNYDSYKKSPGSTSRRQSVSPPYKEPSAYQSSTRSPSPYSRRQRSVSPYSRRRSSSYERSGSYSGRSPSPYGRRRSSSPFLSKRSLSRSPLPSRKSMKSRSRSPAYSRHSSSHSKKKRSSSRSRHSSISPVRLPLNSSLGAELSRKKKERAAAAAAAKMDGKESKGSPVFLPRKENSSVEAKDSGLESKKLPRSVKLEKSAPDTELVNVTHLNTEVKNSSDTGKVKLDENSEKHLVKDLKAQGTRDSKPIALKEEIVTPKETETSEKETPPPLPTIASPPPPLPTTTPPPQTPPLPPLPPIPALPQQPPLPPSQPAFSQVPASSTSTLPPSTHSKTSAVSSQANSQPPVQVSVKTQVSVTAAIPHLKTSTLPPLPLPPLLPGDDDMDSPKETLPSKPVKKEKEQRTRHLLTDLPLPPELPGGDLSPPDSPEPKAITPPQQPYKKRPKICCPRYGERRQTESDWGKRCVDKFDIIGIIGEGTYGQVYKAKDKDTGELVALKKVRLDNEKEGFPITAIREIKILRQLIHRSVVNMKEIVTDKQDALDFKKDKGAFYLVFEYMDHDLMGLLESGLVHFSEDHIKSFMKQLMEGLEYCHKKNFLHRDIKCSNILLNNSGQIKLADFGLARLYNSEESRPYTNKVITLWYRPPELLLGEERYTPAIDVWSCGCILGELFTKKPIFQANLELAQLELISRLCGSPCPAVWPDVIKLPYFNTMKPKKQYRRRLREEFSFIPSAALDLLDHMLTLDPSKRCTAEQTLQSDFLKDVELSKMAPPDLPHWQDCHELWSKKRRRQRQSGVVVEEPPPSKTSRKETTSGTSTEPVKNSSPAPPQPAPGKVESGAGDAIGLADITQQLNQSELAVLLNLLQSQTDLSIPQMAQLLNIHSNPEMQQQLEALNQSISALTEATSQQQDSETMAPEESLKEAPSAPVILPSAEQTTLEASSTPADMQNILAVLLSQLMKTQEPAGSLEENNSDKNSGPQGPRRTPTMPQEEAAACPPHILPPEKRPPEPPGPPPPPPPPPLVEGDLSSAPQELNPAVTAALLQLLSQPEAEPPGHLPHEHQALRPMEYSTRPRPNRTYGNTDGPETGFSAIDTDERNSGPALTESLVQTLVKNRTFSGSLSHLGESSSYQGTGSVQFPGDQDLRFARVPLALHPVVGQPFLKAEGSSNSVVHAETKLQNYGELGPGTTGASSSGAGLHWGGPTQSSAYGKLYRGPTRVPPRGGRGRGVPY
T1 sequence (O75909 whole entry partner): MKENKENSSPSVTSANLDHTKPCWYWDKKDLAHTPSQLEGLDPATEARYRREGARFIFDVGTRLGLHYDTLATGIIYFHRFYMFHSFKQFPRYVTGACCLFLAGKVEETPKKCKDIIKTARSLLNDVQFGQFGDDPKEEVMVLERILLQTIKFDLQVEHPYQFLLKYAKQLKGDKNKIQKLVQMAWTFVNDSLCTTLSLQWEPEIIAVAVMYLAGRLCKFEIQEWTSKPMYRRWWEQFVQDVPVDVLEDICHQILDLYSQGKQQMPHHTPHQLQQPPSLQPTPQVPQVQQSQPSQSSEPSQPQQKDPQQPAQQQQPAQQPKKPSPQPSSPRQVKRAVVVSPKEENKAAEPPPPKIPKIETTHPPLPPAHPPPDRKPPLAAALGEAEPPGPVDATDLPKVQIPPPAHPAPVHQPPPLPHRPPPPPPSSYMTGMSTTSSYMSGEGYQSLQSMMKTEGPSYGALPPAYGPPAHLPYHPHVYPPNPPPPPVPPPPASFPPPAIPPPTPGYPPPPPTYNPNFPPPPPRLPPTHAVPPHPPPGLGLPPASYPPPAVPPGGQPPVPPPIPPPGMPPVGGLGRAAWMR
Description: (A) CRIF1 and CDK12 have opposite effects on global RNAPII CTD-Ser2P levels in vivo. U2OS cells were transfected with indicated siRNAs for 48 hr, and RNAPII phosphorylation was monitored by immunoblot using phospho-specific CTD (Ser2P and Ser5P) antibodies. (B) Knockdown of CRIF1 up-regulates CHK1 expression and induction of p53. […] (C) Analysis of steady-state mRNA levels by qRT-PCR in extracts from U2OS cells exposed to control (CTL) or CRIF1-specific siRNAs, as indicated. (D) Depletion of CRIF1 enhances 4E-BP1 phosphorylation at S65 and T70 in vivo, as assessed by immunoblot using phospho-specific antibodies. (E) CRIF1 inhibits RNAPII CTD-Ser2 phosphorylation by CDK12 complexes in vitro. The human GST-CTD (52 repeat) protein was incubated in vitro with the affinity-purified HA-CDK12 kinase complex in the absence or presence of increasing levels of purified recombinant CRIF1, and analyzed by immunoblot with the indicated antisera. […] Analysis of GST-CTD Ser2 phosphorylation was carried out as described in (E), using the affinity-purified FLAG-CDK9 kinase. (G) CRIF1 inhibits 4E-BP1 phosphorylation by CDK12 in vitro. […] was monitored by immunoblot in the absence or in the presence of different levels of affinity-purified recombinant CRIF1. […]

[2] = biological target: T2, mTORC1/Raptor kinase complex (Homo sapiens, UniProt P42345); assay: In vitro kinase assay: mTORC1 phosphorylation of recombinant 4E-BP1 (T37/46); type: biochemical; details: same reactions with CDK12 and mTORC1/Raptor
T2 construct: made in house
Description: To enable priming of 4E-BP1 by mTORC1, these reactions contained both affinity-purified CDK12 and the mTORC1/Raptor kinase complexes. […] Consistent with a gain-of-function for CDK12 kinase activity in CRIF1 knockdown cells, enhanced binding of eIF4G to target mRNAs was observed (FIG. 6H, upper panel) that were identified previously by RIP-seq, with no effects on total mRNA levels (FIG. 6H, bottom panel).

Substance: Growth Arrest and DNA Damage-Inducible Proteins-Interacting Protein 1 [CRIF1]
- CDK12-mediated phosphorylation of the human GST-CTD substrate (RNAPII CTD-Ser2) [1]: inhibits
- CDK12-mediated phosphorylation of the human GST-CTD substrate (RNAPII CTD-Ser2) ([1]; listed as recombinant CRIF1): potently inhibited
- phosphorylation of the T37/46 sites of 4E-BP1 by mTORC1 [2]: without affecting
